In brackets after ≈: the same amount, converted by molar mass. Read-outs that look alike come from different tables or passages of the source.
Key:
[1] = tested on: Staphylococcus epidermidis; assay type: cell-based; for FOX screen: key: POS: cefoxitin-screen positive (resistant to cefoxitin)
Method: (§1) It was also tested whether compounds #63 and #285 can inhibit other coagulase-negative Staphylococcus (CNS) including S. epidermidis, S. hominis, etc. […].

[2] = tested on: Staphylococcus hominis; assay type: cell-based; for FOX screen: key: POS: cefoxitin-screen positive (resistant to cefoxitin)
Method: as §1

[3] = tested on: S. aureus ATCC strains and MRSA; assay type: cell-based, Staphylococcus aureus
[4] = tested on: S. aureus (ATCC 29213); assay: MIC80 on S. aureus; assay type: cell-based, Staphylococcus aureus; conditions: S. aureus ATCC 29213 (MSSA); ≥80% growth inhibition
Method: (§2) To further characterize the compounds, the minimal inhibitory concentration (MIC80) were determined for selected compounds. MIC80 is defined as the compound concentration at which ≥80% bacterial growth is inhibited compare to untreated controls. Meanwhile, for the selected compounds, cytotoxicity assays (CC50) were performed on a HepG2-derived hepatoblastoma cell line (HEPDES19). […] For CC50 evaluation, soluble tetrazolium dye (MTS) was used to measure mitochondrial toxicity in a human hepatoblastoma cell line (18). The bacteria (E. coli, S. saprophyticus and A. baumannii) used in MIC80 measurements were the same as that in the primary screening, but for Staphylococcus, S. aureus is used primarily because it is a common pathogen in Staphylococcaeae family, while S. saprophyticus is part of the normal human flora.

[5] = tested on: E. coli (ATCC 35218); assay: microbe, parasite or virus in culture; assay type: cell-based; conditions: E. coli ATCC 35218
Method: as §2

[6] = tested on: Coagulase negative Staphylococcus; assay: Antibiotic susceptibility of coagulase negative Staphylococcus strains; assay type: cell-based
[7] = Se1 (Staphylococcus epidermidis)
[8] = Se2 (Staphylococcus epidermidis)
[9] = Se3 (Staphylococcus epidermidis)
[10] = Se4 (Staphylococcus epidermidis)
[11] = Se5 (Staphylococcus epidermidis)
[12] = CNS1 (Coagulase negative Staphylococcus)
[13] = CNS2 (Coagulase negative Staphylococcus)

CCC[C@@H]1C[C@@H](C(=O)N[C@@H]([C@H]2O[C@H](SC)[C@H](O)[C@@H](O)[C@H]2O)[C@H](C)Cl)N(C)C1 [CLI, clindamycin]
Antibiotic susceptibility [1, 7]: R
Antibiotic susceptibility [1, 8]: R
Antibiotic susceptibility [1, 9]: R
Antibiotic susceptibility [1, 10]: R
Antibiotic susceptibility [1, 11]: R
Antibiotic susceptibility ([2]; Sh1 (Staphylococcus hominis)): S
Antibiotic susceptibility ([2]; Sh2 (Staphylococcus hominis)): S
Antibiotic susceptibility ([2]; Sh3 (Staphylococcus hominis)): R
Antibiotic susceptibility ([3]; S. aureus ATCC 25923): S
Antibiotic susceptibility ([3]; S. aureus ATCC 29213): S
Antibiotic susceptibility ([3]; S. aureus ATCC BAA 976): S
Antibiotic susceptibility ([3]; S. aureus ATCC BAA 977): R
Antibiotic susceptibility ([3]; S. aureus ATCC BAA 1026): R
Antibiotic susceptibility ([3]; Sa1 (MRSA)): R
Antibiotic susceptibility ([3]; Sa2 (MRSA)): S
Antibiotic susceptibility ([3]; Sa3 (MRSA)): R
Antibiotic susceptibility ([3]; Sa5 (MRSA)): R
Antibiotic susceptibility ([3]; Sa6 (MRSA)): R
Antibiotic susceptibility ([3]; Sa7 (MRSA)): S
Antibiotic susceptibility ([3]; Sa8 (MRSA)): S
Antibiotic susceptibility ([3]; Sa9 (MRSA)): R
Antibiotic susceptibility ([3]; Sa10 (MRSA)): R
Antibiotic susceptibility ([3]; Sa11 (MRSA)): R
Antibiotic susceptibility ([3]; Sa12 (MRSA)): R
Antibiotic susceptibility ([3]; Sa14 (MRSA)): R
Antibiotic susceptibility ([3]; Sa15 (MRSA)): R
Antibiotic susceptibility ([3]; Sa16 (MRSA)): R
Antibiotic susceptibility ([3]; Sa17 (MRSA)): S
Antibiotic susceptibility ([3]; Sa18 (MRSA)): S
Antibiotic susceptibility ([3]; Sa19 (MRSA)): R
Antibiotic susceptibility ([3]; Sa20 (MRSA)): S
Antibiotic susceptibility ([3]; Sa21 (MRSA)): S
Antibiotic susceptibility ([3]; Sa22 (MRSA)): S
Antibiotic susceptibility ([3]; Sa23 (MRSA)): S

Cc1cc(O)c(=O)c(O)cc1-c1cccc2ccccc12 [Compound 146]
MIC80 S. aureus [4]: 19.8 µM (≈ 5.51 µg/mL)

O=C(O)c1ccccc(=O)c1O [Compound 338]
MIC80 S. aureus [4]: 19.8 µM (≈ 3.29 µg/mL)

COc1ccc(Cl)cc1C(=O)Sc1cccccc1=O [Compound 681]
MIC80 E. coli [5]: 19.8 µM (≈ 6.07 µg/mL)
MIC80 S. aureus [4]: 19.8 µM (≈ 6.07 µg/mL)

O=c1cccccc1Sc1cccccc1=O [Compound 684]
MIC80 S. aureus [4]: 44.4 µM (≈ 10.8 µg/mL)

O=c1cccccc1SSc1cccccc1=O [Compound 685]
MIC80 E. coli [5]: 19.8 µM (≈ 5.43 µg/mL)
MIC80 S. aureus [4]: >100 µM

CCCCCCCCCC(=O)N[C@@H](Cc1c[nH]c2ccccc12)C(=O)N[C@H](CC(N)=O)C(=O)N[C@@H](CC(=O)O)C(=O)N[C@@H]1C(=O)NCC(=O)N[C@@H](CCCN)C(=O)N[C@@H](CC(=O)O)C(=O)N[C@H](C)C(=O)N[C@@H](CC(=O)O)C(=O)NCC(=O)N[C@H](CO)C(=O)N[C@@H]([C@H](C)CC(=O)O)C(=O)N[C@@H](CC(=O)c2ccccc2N)C(=O)O[C@@H]1C [DAP, daptomycin]
Antibiotic susceptibility [1, 7]: S
Antibiotic susceptibility [1, 8]: S
Antibiotic susceptibility [1, 9]: S
Antibiotic susceptibility [1, 10]: S
Antibiotic susceptibility [1, 11]: S
Antibiotic susceptibility ([2]; Sh1 (Staphylococcus hominis)): S
Antibiotic susceptibility ([2]; Sh2 (Staphylococcus hominis)): S
Antibiotic susceptibility ([2]; Sh3 (Staphylococcus hominis)): S
Antibiotic susceptibility [6, 12]: S
Antibiotic susceptibility [6, 13]: S
Antibiotic susceptibility ([3]; S. aureus ATCC 25923): S
Antibiotic susceptibility ([3]; S. aureus ATCC 29213): S
Antibiotic susceptibility ([3]; S. aureus ATCC BAA 976): S
Antibiotic susceptibility ([3]; S. aureus ATCC BAA 977): S
Antibiotic susceptibility ([3]; S. aureus ATCC BAA 1026): S
Antibiotic susceptibility ([3]; Sa1 (MRSA)): S
Antibiotic susceptibility ([3]; Sa2 (MRSA)): S
Antibiotic susceptibility ([3]; Sa3 (MRSA)): S
Antibiotic susceptibility ([3]; Sa6 (MRSA)): S
Antibiotic susceptibility ([3]; Sa7 (MRSA)): S
Antibiotic susceptibility ([3]; Sa9 (MRSA)): S
Antibiotic susceptibility ([3]; Sa11 (MRSA)): S
Antibiotic susceptibility ([3]; Sa12 (MRSA)): S
Antibiotic susceptibility ([3]; Sa15 (MRSA)): S
Antibiotic susceptibility ([3]; Sa16 (MRSA)): S
Antibiotic susceptibility ([3]; Sa17 (MRSA)): S
Antibiotic susceptibility ([3]; Sa18 (MRSA)): S
Antibiotic susceptibility ([3]; Sa19 (MRSA)): S
Antibiotic susceptibility ([3]; Sa20 (MRSA)): S
Antibiotic susceptibility ([3]; Sa21 (MRSA)): S
Antibiotic susceptibility ([3]; Sa22 (MRSA)): S
Antibiotic susceptibility ([3]; Sa23 (MRSA)): S

C[C@H]1c2cccc(O)c2C(=O)C2=C(O)[C@]3(O)C(=O)C(C(N)=O)=C(O)[C@@H](N(C)C)[C@@H]3[C@@H](O)[C@@H]21 [DOX, doxycycline]
Antibiotic susceptibility [1, 7]: S
Antibiotic susceptibility [1, 8]: S
Antibiotic susceptibility [1, 9]: S
Antibiotic susceptibility [1, 10]: S
Antibiotic susceptibility [1, 11]: S
Antibiotic susceptibility ([2]; Sh1 (Staphylococcus hominis)): S
Antibiotic susceptibility ([2]; Sh2 (Staphylococcus hominis)): R
Antibiotic susceptibility ([2]; Sh3 (Staphylococcus hominis)): S
Antibiotic susceptibility [6, 12]: S
Antibiotic susceptibility [6, 13]: S
Antibiotic susceptibility ([3]; S. aureus ATCC 25923): S
Antibiotic susceptibility ([3]; S. aureus ATCC 29213): S
Antibiotic susceptibility ([3]; S. aureus ATCC BAA 976): S
Antibiotic susceptibility ([3]; S. aureus ATCC BAA 977): S
Antibiotic susceptibility ([3]; S. aureus ATCC BAA 1026): S
Antibiotic susceptibility ([3]; Sa1 (MRSA)): S
Antibiotic susceptibility ([3]; Sa2 (MRSA)): S
Antibiotic susceptibility ([3]; Sa3 (MRSA)): S
Antibiotic susceptibility ([3]; Sa6 (MRSA)): S
Antibiotic susceptibility ([3]; Sa7 (MRSA)): S
Antibiotic susceptibility ([3]; Sa9 (MRSA)): S
Antibiotic susceptibility ([3]; Sa11 (MRSA)): S
Antibiotic susceptibility ([3]; Sa12 (MRSA)): S
Antibiotic susceptibility ([3]; Sa14 (MRSA)): S
Antibiotic susceptibility ([3]; Sa15 (MRSA)): S
Antibiotic susceptibility ([3]; Sa16 (MRSA)): S
Antibiotic susceptibility ([3]; Sa17 (MRSA)): S
Antibiotic susceptibility ([3]; Sa18 (MRSA)): S
Antibiotic susceptibility ([3]; Sa19 (MRSA)): S
Antibiotic susceptibility ([3]; Sa20 (MRSA)): S
Antibiotic susceptibility ([3]; Sa21 (MRSA)): S
Antibiotic susceptibility ([3]; Sa22 (MRSA)): S
Antibiotic susceptibility ([3]; Sa23 (MRSA)): S

CC[C@H]1OC(=O)[C@H](C)[C@@H](O[C@H]2C[C@@](C)(OC)[C@@H](O)[C@H](C)O2)[C@H](C)[C@@H](O[C@@H]2O[C@H](C)C[C@H](N(C)C)[C@H]2O)[C@](C)(O)C[C@@H](C)C(=O)[C@H](C)[C@@H](O)[C@]1(C)O [ERY, erythromycin]
Antibiotic susceptibility [1, 7]: S
Antibiotic susceptibility [1, 8]: R
Antibiotic susceptibility [1, 9]: R
Antibiotic susceptibility [1, 10]: R
Antibiotic susceptibility [1, 11]: R
Antibiotic susceptibility ([2]; Sh1 (Staphylococcus hominis)): R
Antibiotic susceptibility ([2]; Sh2 (Staphylococcus hominis)): S
Antibiotic susceptibility ([2]; Sh3 (Staphylococcus hominis)): R
Antibiotic susceptibility [6, 12]: I
Antibiotic susceptibility [6, 13]: S
Antibiotic susceptibility ([3]; S. aureus ATCC 25923): S
Antibiotic susceptibility ([3]; S. aureus ATCC 29213): S
Antibiotic susceptibility ([3]; S. aureus ATCC BAA 976): R
Antibiotic susceptibility ([3]; S. aureus ATCC BAA 977): R
Antibiotic susceptibility ([3]; S. aureus ATCC BAA 1026): R
Antibiotic susceptibility ([3]; Sa1 (MRSA)): R
Antibiotic susceptibility ([3]; Sa2 (MRSA)): R
Antibiotic susceptibility ([3]; Sa3 (MRSA)): R
Antibiotic susceptibility ([3]; Sa5 (MRSA)): R
Antibiotic susceptibility ([3]; Sa6 (MRSA)): R
Antibiotic susceptibility ([3]; Sa7 (MRSA)): R
Antibiotic susceptibility ([3]; Sa8 (MRSA)): R
Antibiotic susceptibility ([3]; Sa9 (MRSA)): R
Antibiotic susceptibility ([3]; Sa10 (MRSA)): R
Antibiotic susceptibility ([3]; Sa11 (MRSA)): R
Antibiotic susceptibility ([3]; Sa12 (MRSA)): R
Antibiotic susceptibility ([3]; Sa14 (MRSA)): R
Antibiotic susceptibility ([3]; Sa15 (MRSA)): R
Antibiotic susceptibility ([3]; Sa16 (MRSA)): R
Antibiotic susceptibility ([3]; Sa17 (MRSA)): R
Antibiotic susceptibility ([3]; Sa18 (MRSA)): R
Antibiotic susceptibility ([3]; Sa19 (MRSA)): R
Antibiotic susceptibility ([3]; Sa20 (MRSA)): R
Antibiotic susceptibility ([3]; Sa21 (MRSA)): R
Antibiotic susceptibility ([3]; Sa22 (MRSA)): R
Antibiotic susceptibility ([3]; Sa23 (MRSA)): R

CO[C@@]1(NC(=O)Cc2cccs2)C(=O)N2C(C(=O)O)=C(COC(N)=O)CS[C@@H]21 [FOX, Cefoxitin]
FOX screen [1, 7]: POS
FOX screen [1, 8]: POS
FOX screen [1, 9]: POS
FOX screen [1, 10]: POS
FOX screen [1, 11]: POS
FOX screen ([2]; Sh1 (Staphylococcus hominis)): POS
FOX screen ([2]; Sh2 (Staphylococcus hominis)): POS
FOX screen ([2]; Sh3 (Staphylococcus hominis)): POS
FOX screen [6, 12]: POS
FOX screen [6, 13]: POS
FOX screen ([3]; S. aureus ATCC 25923): Neg
FOX screen ([3]; S. aureus ATCC 29213): Neg
FOX screen ([3]; S. aureus ATCC BAA 976): POS
FOX screen ([3]; S. aureus ATCC BAA 977): Neg
FOX screen ([3]; S. aureus ATCC BAA 1026): POS
FOX screen ([3]; Sa1 (MRSA)): POS
FOX screen ([3]; Sa2 (MRSA)): POS
FOX screen ([3]; Sa3 (MRSA)): POS
FOX screen ([3]; Sa6 (MRSA)): POS
FOX screen ([3]; Sa7 (MRSA)): POS
FOX screen ([3]; Sa9 (MRSA)): POS
FOX screen ([3]; Sa11 (MRSA)): POS
FOX screen ([3]; Sa12 (MRSA)): POS
FOX screen ([3]; Sa14 (MRSA)): POS
FOX screen ([3]; Sa15 (MRSA)): POS
FOX screen ([3]; Sa16 (MRSA)): POS
FOX screen ([3]; Sa17 (MRSA)): POS
FOX screen ([3]; Sa18 (MRSA)): POS
FOX screen ([3]; Sa19 (MRSA)): POS
FOX screen ([3]; Sa20 (MRSA)): POS
FOX screen ([3]; Sa21 (MRSA)): POS
FOX screen ([3]; Sa22 (MRSA)): POS
FOX screen ([3]; Sa23 (MRSA)): POS
